CCc1ccc(C(=O)c2ccccc2C(=O)O)cc1
Settings	solubility (mole fraction)
in 1,4-dioxane, 288.88 K	0.0042
in 1,4-dioxane, 293.97 K	0.0066
in 1,4-dioxane, 298.46 K	0.0091
in 1,4-dioxane, 303.53 K	0.0121
in 1,4-dioxane, 308.09 K	0.0153
in 1,4-dioxane, 313.4 K	0.0195
in 1,4-dioxane, 319.15 K	0.024
in 1,4-dioxane, 322.54 K	0.0278
in 1,4-dioxane, 333.97 K	0.0353
in DMF, 281.2 K	0.343
in DMF, 286.49 K	0.367
in DMF, 290.63 K	0.382
in DMF, 296.42 K	0.42
in DMF, 305.65 K	0.451
in DMF, 314.34 K	0.47
in DMF, 325.55 K	0.507
in DMF, 335.75 K	0.532
in NMP, 280.1 K	0.163
in NMP, 284.15 K	0.175
in NMP, 293.44 K	0.209
in NMP, 303.76 K	0.26
in NMP, 313.15 K	0.315
in NMP, 322.85 K	0.396
in NMP, 334.3 K	0.484
in THF, 281.2 K	0.0064
in THF, 286.49 K	0.0085
in THF, 296.42 K	0.0125
in THF, 305.65 K	0.0178
in THF, 314.34 K	0.0246
in THF, 325.55 K	0.0377
in THF, 330.34 K	0.0442
in THF, 335.75 K	0.0541
in acetone, 280.25 K	0.0015
in acetone, 284.85 K	0.0022
in acetone, 290.87 K	0.0032
in acetone, 299.83 K	0.0054
in acetone, 310.39 K	0.0087
in acetone, 314.89 K	0.0107
in acetone, 319.6 K	0.0132
in acetone, 324.16 K	0.0156
in benzene, 283.05 K	0.0023
in benzene, 288.68 K	0.0037
in benzene, 293.52 K	0.0052
in benzene, 302.78 K	0.0109
in benzene, 313.15 K	0.0228
in benzene, 322.65 K	0.0408
in benzene, 328.38 K	0.0598
in benzene, 332.7 K	0.0793
in ethanol, 282.29 K	0.0733
in ethanol, 289.68 K	0.1
in ethanol, 294.91 K	0.123
in ethanol, 304.6 K	0.164
in ethanol, 314.3 K	0.214
in ethanol, 322.91 K	0.256
in ethanol, 328.65 K	0.289
in ethanol, 338.19 K	0.354
in ethanol, 342.82 K	0.388
in ethyl formate, 280.6 K	0.0014
in ethyl formate, 289.68 K	0.0027
in ethyl formate, 294.91 K	0.0038
in ethyl formate, 299.65 K	0.005
in ethyl formate, 304.6 K	0.006
in ethyl formate, 309.59 K	0.0075
in ethyl formate, 314.3 K	0.0087
in ethyl formate, 318.67 K	0.01
in ethyl formate, 322.91 K	0.0113
in isopropanol, 279.79 K	0.0023
in isopropanol, 284.74 K	0.0037
in isopropanol, 294.05 K	0.0085
in isopropanol, 303.99 K	0.0174
in isopropanol, 313.25 K	0.0305
in isopropanol, 323.37 K	0.0464
in isopropanol, 334.05 K	0.0631
in methanol, 279.9 K	0.0627
in methanol, 285.6 K	0.0827
in methanol, 290.81 K	0.101
in methanol, 295.45 K	0.118
in methanol, 305.56 K	0.164
in methanol, 314.4 K	0.202
in methanol, 323.8 K	0.248
in methanol, 328.69 K	0.273
in methanol, 333.53 K	0.3
in n-propanol, 279.55 K	0.0499
in n-propanol, 288.67 K	0.0777
in n-propanol, 299.23 K	0.121
in n-propanol, 308.86 K	0.168
in n-propanol, 318.93 K	0.223
in n-propanol, 328.62 K	0.279
in n-propanol, 338.45 K	0.344
in n-propanol, 343.15 K	0.387
